The structures appear in SMILES notation.

For orientation: IC50 means the concentration needed to halve the response being measured. Lower therefore signals inhibition by little substance.

Test [1] deals with L1210. Kind of test: In vitro cytotoxicity in L1210 cell lines. In kind it is functional, cell-based, Mus musculus.
Test [2] in a line: Compound was evaluated for relative DNA alkylation efficiency. Type of test: functional.

In the case of `COC(=O)c1cc2c([nH]1)C(=O)C=C1N(C(=O)c3cc4ccccc4[nH]3)C[C@H]3C[C@]123` (stereo in doubt; (+)-4) [listing 1 of 2 here], the IC50 in test [1] worked out at 65 pM.
On to `COC(=O)c1cc2c([nH]1)C(=O)C=C1N(C(=O)c3cc4ccccc4[nH]3)C[C@H]3C[C@]123` (stereo in doubt; (+)-4) [listing 2 of 2 here], for which the krel in test [2] is 0.05.
`COC(=O)c1cc2c([nH]1)C(=O)C=C1N(C(=O)c3cc4cc(OC)ccc4[nH]3)C[C@H]3C[C@]123` (stereo in doubt; (+)-5) [listing 1 of 2 here]: it took 10 pM to reach half-maximal inhibition in test [1] (IC50). That is a picomolar value.
On to `COC(=O)c1cc2c([nH]1)C(=O)C=C1N(C(=O)c3cc4cc(OC)ccc4[nH]3)C[C@H]3C[C@]123` (stereo in doubt; (+)-5) [listing 2 of 2 here], for which the krel in test [2] came out at 1.
In test [1], `COC(=O)c1cc2c([nH]1)C(=O)C=C1N(C(=O)c3cc4ccc(OC)cc4[nH]3)C[C@H]3C[C@]123` (stereo in doubt; (+)-6) [listing 1 of 2 here] had an IC50 of 25 pM. In other words, the picomolar range.
The molecule `COC(=O)c1cc2c([nH]1)C(=O)C=C1N(C(=O)c3cc4ccc(OC)cc4[nH]3)C[C@H]3C[C@]123` (stereo in doubt; (+)-6) [listing 2 of 2 here] came in with a krel in test [2] of 0.2.
As to `COC(=O)c1cc2c([nH]1)C(=O)C=C1N(C(=O)c3cc4cccc(OC)c4[nH]3)C[C@H]3C[C@]123` (stereo in doubt; (+)-7) [listing 1 of 2 here], in test [1], the IC50 is 60 pM.
Regarding `COC(=O)c1cc2c([nH]1)C(=O)C=C1N(C(=O)c3cc4cccc(OC)c4[nH]3)C[C@H]3C[C@]123` (stereo in doubt; (+)-7) [listing 2 of 2 here], the krel in test [2] was 0.1.
Molecule `COC(=O)c1cc2c([nH]1)C(=O)C=C1N(C(=O)c3cc4ccccc4[nH]3)C[C@H]3C[C@]123` (stereo in doubt; (-)-4) showed an IC50 in test [1] of 1700 pM. In other words, the single-digit nanomolar range.
`COC(=O)c1cc2c([nH]1)C(=O)C=C1N(C(=O)c3cc4cc(OC)ccc4[nH]3)C[C@H]3C[C@]123` (stereo in doubt; (-)-5) showed an IC50 in test [1] of 300 pM. This IC50 lies about 5.7-fold lower than the previous one.
As for `COC(=O)c1cc2c([nH]1)C(=O)C=C1N(C(=O)c3cc4ccc(OC)cc4[nH]3)C[C@H]3C[C@]123` (stereo in doubt; (-)-6), in test [1], the IC50 worked out at 1300 pM.
With `COC(=O)c1cc2c([nH]1)C(=O)C=C1N(C(=O)c3cc4cccc(OC)c4[nH]3)C[C@H]3C[C@]123` (stereo in doubt; (-)-7), the IC50 in test [1] is 1800 pM.
In turn, `COC(=O)c1cc2c([nH]1)C(=O)C=C1N(C(=O)c3cc4cc(OC)c(OC)c(OC)c4[nH]3)C[C@H]3C[C@]123` [DUOCARMYCIN] yielded a 50% inhibitory concentration (IC50) in test [1] of 100 pM. Moreover, in test [2], the krel is 1.
